Results as given in publication PMC8456958, “Selective Bacterial Targeting and Infection‐Triggered Release of Antibiotic Colistin Conjugates” (Angewandte Chemie (International Ed. in English), 2021).
Converted amounts (≈) assume the structure as drawn. Positions of bridges follow the written chain, without caps; N, C: chain ends. Non-standard residues stand in square brackets, D forms with d. Residues, ends and D or L forms follow the SMILES beside them. *: point of attachment. Heptanoyl(6-Me) = CC(C)CCCCC(=O)*; Dab = NCC[C@H](N)C(=O)O

Columns and labels:
E. coli K12 = assay type: cell-based, Escherichia coli
Procedure: Determination of antibacterial activities by broth dilution assay
Bacterial suspensions at 5-6 x 10^5 CFU (1:1000 dilution of a bacterial suspension of OD600 = 1) in T-medium were incubated in volumes of 200 µl in sterile clear 96-well microtiter plates at 37 °C in a wet chamber with serial dilution of peptide-colistin constructs and controls (32 – 0.016 µM) for 18 h.
External neutrophil elastase was added at 10 mU/ml or 100 mU/ml to each well at the start of incubation, where indicated. After the incubation, the plate was placed for 5 min on a MTP shaker to generate homogenous bacterial suspensions. OD600 was then determined in a microplate reader. The wells with the lowest compound concentration without growth defined the MICs. […]
Figure S7. Heat plot of the growth of E. coli K12 and E. coli DSM 1116 in presence of 6. Rows A-D: E. coli K12; Rows E-H: E. coli DSM 1116; A + E colistin; B + F peptide-colistin construct 6; C + G peptide-colistin construct 6 + 10 mU/ml elastase; D + H bacteria without compounds. The numbers below the heatplot depict the concentration of colistin and peptides in µM. Conditions: T medium, incubation 20 h at 37 °C in wet chamber; inoculum: cultures at OD = 1.0 diluted 1:1000 (5-6 x 10^5 CFU/ml). […]
Figure S10. Heat plot of the growth of E. coli in presence of 48 and 49. Row A: E. coli K12 without added compounds; B colistin B; C peptide-colistin construct 49; D peptide-colistin construct 49 + 10 mU/ml elastase; E ElsaSub-colistin; F 48 with 10 mU elastase; G 4; H 4 with […]. The numbers depict the concentration of colistin and peptides in µM. Conditions: T medium, incubation 17.5 h at 37 °C in wet chamber; inoculum 5-6 x 10^5 CFU/ml. […]
with elastase 10 mU/ml pos-1-isomer (22) […]
with elastase 10 mU/ml pos-3-isomer (28) […]
with elastase 10 mU/ml pos-5-isomer (34) […]
with elastase 10 mU/ml pos-8-isomer (40) […]
with elastase 10 mU/ml pos-9-isomer (46)
Figure S11. Heat plot of the growth of E. coli in presence of positional isomers obtained by total chemical synthesis. Conditions: T medium, incubation for 20 h at 37 °C in wet chamber; inoculum 5-6 x 10^5 CFU/ml. Addition of neutrophil elastase at 10 and 100 mU/ml, as indicated. Concentrations of isomers stated below the heat plot in µg/ml. […]

E. coli DSM 1116 = assay type: cell-based, Escherichia coli; settings: Table 1; without elastase; broth dilution, T-medium, 5-6 x 10^5 CFU, 37 °C, OD600 readout
Procedure: min at rt, and blood smears were prepared on microscopy slides that were air-dried in the dark. Phase contrast and fluorescence (485/520 nm) microscopy pictures were captured with a Zeiss Axiovert with a 40× APO 1.4 lens. For quantification of fluorescence, pictures were analyzed by using ImageJ (v1.52).
Outlines were drawn around each cell and circularity, area and mean fluorescence were determined.
In addition, several background readings were taken at empty areas. Total corrected cellular fluorescence (TCCF) = integrated density – (area of selected cell × mean fluorescence of background readings), was calculated for 200 bacteria for each assay.
Determination of antibacterial activities by broth dilution assay […]
External neutrophil elastase was added at 10 mU/ml or 100 mU/ml to each well at the start of incubation, where indicated. […] OD600 was then determined in a microplate reader. […]
Quantification of 1, 6 and 7
To 50 µl samples 50 µl acetic acid were added and the samples were filtered through 10 kDa ultrafiltration columns (Amicon Ultra 0.5 ml, Millipore) by centrifugation for 60 min at 14.000 x g and 4 °C. […] Colistin was quantified on a Q-Trap 6500 HPLC-MS with samples of 5 µl each as described above. […]

[1] = Table 2, E. coli K12, conservative MIC readouts of at least three independent biological experiments

CC(C)CCCCC(=O)N[C@@H](CCN)C(=O)N[C@H](C(=O)N[C@@H](CCN)C(=O)N[C@H]1CCNC(=O)[C@H]([C@@H](C)O)NC(=O)[C@H](CCN)NC(=O)[C@H](CCN)NC(=O)[C@H](CC(C)C)NC(=O)[C@@H](CC(C)C)NC(=O)[C@H](CCN)NC1=O)[C@@H](C)O [Compound 1, colistin B, reference compound] ({Heptanoyl(6-Me)}-[Dab]T[Dab][Dab][Dab][dL]L[Dab][Dab]T; lactam 4-C)
MIC, E. coli K12 (E. coli K12; Table 1, without elastase, broth dilution, T-medium, 5-6 x 10^5 CFU, 37 °C, OD600 readout): 0.063 µM (≈ 0.0728 µg/mL) | MIC with 10 mU mL^−1 Elastase (E. coli K12; [1]): 0.031 µM | MIC with 100 mU mL^−1 Elastase (E. coli K12; [1]): 0.031 µM | MIC without Elastase (E. coli K12; [1]): 0.031 µM (≈ 0.0358 µg/mL) | MIC, E. coli DSM 1116 (E. coli DSM 1116): 0.063 µM (≈ 0.0728 µg/mL)
